Data from patent publication US20190054051A1, “DOPA Formulations for Treatments of Parkinson's Disease” (The Board of Trustees of the Leland Stanford Junior …, priority 2017, published 2019).

Legend:
GRK3 = experiment: Western blot of GRK3 in intact and lesioned striatum; format: in vivo, mice; conditions: normalized to actin; formulation and ranitidine groups compared with the DOPA-treated group, Bonferroni post-hoc
Description: (§1) After behavioral testing, mice again received their assigned injection and then, 45 minutes later, were decapitated under anesthesia. Tissue samples were processed as follows. Briefly, the brain was dissected, rapidly frozen on dry ice, and stored at −80° C. Striatal tissue was collected from 100 μm coronal slices cut at the level of striatum using a cryostat (Leica CM1950, Leica Biosystems Inc, Buffalo Groove, Ill.). Striatal samples from the intact and the lesioned hemisphere were separately collected in 150p1 of lysis solution (Totally RNA, Ambion, Austin, Tex.). Care was taken to make sure that the tissue samples were collected from similar regions in all the brain samples analyzed, since there are differences in the expression of GRKs from rostral to caudal CPu. […]
(§2) Western blots were quantified using band densitometry in Image J software (NIH version). […] Results are represented as group mean±SEM and analyzed using one-way or repeated-measures ANOVA (RM-ANOVA), with post hoc Bonferroni tests. The mouse cylinder test was analyzed with RM-ANOVA, with group (DOPA and DOPA-ranitidine formulations) as a between-group factor and saline vs. DOPA treatment as a within-group factor. AIMs scores were analyzed using the Kruskal Wallis test for pre-testing (DOPA injected animals) and the Mann-Whitney U test for the post-testing sessions (DOPA vs DOPA-ranitidine formulations). […]

ERK = experiment: Western blot of ppERK and total ERK in striatum; format: in vivo, mice; conditions: 45 minutes after last injection
Description: as §1, §2

Δ Fos B = experiment: Western blot of Δ Fos B accumulation in striatum; parameters: species or system mice; conditions: mouse, in vivo
Description: After behavioral testing, mice again received their assigned injection and then, 45 minutes later, were decapitated under anesthesia. Tissue samples were processed as follows. Briefly, the brain was dissected, rapidly frozen on dry ice, and stored at −80° C. Striatal tissue was collected from 100 μm coronal slices cut at the level of striatum using a cryostat (Leica CM1950, Leica Biosystems Inc, Buffalo Groove, Ill.). Striatal samples from the intact and the lesioned hemisphere were separately collected in 150p1 of lysis solution (Totally RNA, Ambion, Austin, Tex.). Care was taken to make sure that the tissue samples were collected from similar regions in all the brain samples analyzed, since there are differences in the expression of GRKs from rostral to caudal CPu. […] Western blots were quantified using band densitometry in Image J software (NIH version). […] Results are represented as group mean±SEM and analyzed using one-way or repeated-measures ANOVA (RM-ANOVA), with post hoc Bonferroni tests. The mouse cylinder test was analyzed with RM-ANOVA, with group (DOPA and DOPA-ranitidine formulations) as a between-group factor and saline vs. DOPA treatment as a within-group factor. AIMs scores were analyzed using the Kruskal Wallis test for pre-testing (DOPA injected animals) and the Mann-Whitney U test for the post-testing sessions (DOPA vs DOPA-ranitidine formulations). […]

Row | Compound | GRK3 in the lesioned hemisphere as % expression of the intact side (GRK3) | ERK phosphorylation (ppERK) in the lesioned hemisphere (ERK) | Δ Fos B accumulation on the lesioned side (Δ Fos B)
1 | N[C@@H](Cc1ccc(O)c(O)c1)C(=O)O [L-DOPA, L-3,4-dihydroxyphenylalanine] | significantly reduced in the lesioned hemisphere | increased | significantly increased on the lesioned side
2 | CN/C(=C\[N+](=O)[O-])NCCSCc1ccc(CN(C)C)o1 [Ranitidine, N-(2-[(5-[(dimethylamino)methyl]furan-2-yl)methylthio]ethyl)-N′-methyl-2-nitroethene-1,1-diamine] | significantly attenuated | increased | no effects
